The values that follow come from US11452752B2, “Composition for antioxidation, anti-inflammation, or osteoclast differentiation inhibition” (NATURAL ENDOTECH CO., LTD., priority 2017, dated 2022).

In test [1] the test system is osteoclast differentiation of Raw 264.7 cells. As to the kind of experiment: RANKL-induced osteoclast differentiation inhibition (osteoclast count). Type of test: cell-based. The conditions noted are these: Mus musculus, RAW264.7, 96 h; 10 mM; 50 ng/mL RANKL, 4 days; read-out: osteoclast differentiation inhibitory effect. Here is the method:
The media were removed after the incubation, followed by washing with PBS, and then the cells were fixed and stained using a leukocyte acid phosphatase kit (Sigma). After the staining, the osteoclasts were counted using a microscope, and the osteoclast count in a sample was expressed as a percentage relative to the control.

For test [2], the system named is nitric oxide (NO) production in RAW264.7 cells. As to the kind of experiment: Nitric oxide (NO) production inhibition, GRIESS assay, LPS-stimulated cells. Type of test: cell-based. The conditions noted are these: 12.5 μM; 500 ng/mL LPS, 24 hours. The method, then: After the incubation, 100 μL of the supernatant was taken and transferred into a 96-well plate, and 100 μL of GRIESS solution was added, followed by incubation for 10 minutes. Thereafter, the absorbance was measured at 540 nm using a microplate reader to determine the NO production inhibitory effect.
In general terms: The Griess reaction detects nitrite, a stable product of nitric oxide.

Consider `NCCCC(O)(P(=O)(O)O)P(=O)(O)O` [alendronate], for which the inhibition at 10000 µM in test [1] was 72.2%.

`Cc1ccc(-c2cc(C(F)(F)F)nn2-c2ccc(S(N)(=O)=O)cc2)cc1` [celecoxib]: the NO production in test [2] stood at 46.7%.
